# Results: the supplement of paper PMC10307832
# Columns and labels:
# Assay in all cases: relative viability (nuclei count vs DMSO), 5 days (fraction); higher = more cells survive
# [1] = system: SW 900
# How it was run: (§1)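 Relative viability equals treated-well nuclei counts divided by vehicle-well nuclei counts. Counts came from 4× images of lung cancer cell lines grown in 1536-well plates for 5 days after pin-tool dosing on the day after seeding. Dosing used one drug alone or a fixed anchor-drug dose plus five library-drug doses (not always all listed) in √10 steps, and values are medians of duplicate plates.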
# [2] = system: ABC-1
# How it was run: as §1
# [3] = system: HARA
# How it was run: as §1
# [4] = system: LK-2
# How it was run: as §1
# [5] = system: NCI-H1792
# How it was run: as §1
# [6] = system: NCI-H522
# How it was run: as §1
# [7] = system: NCI-H1993
# How it was run: as §1
# [8] = system: NCI-H727
# How it was run: as §1
# [9] = system: LXF-289
# How it was run: as §1
# [10] = system: PC-3 [JPC-3]
# How it was run: as §1
# [11] = system: NCI-H3122
# How it was run: as §1
# [12] = system: NCI-H1944
# How it was run: as §1
# [13] = system: HOP-62
# How it was run: as §1
# [14] = system: A-427
# How it was run: as §1
# [15] = system: NCI-H596
# How it was run: as §1
# [16] = system: NCI-H322M
# How it was run: as §1
# [17] = system: EMC-BAC-2
# How it was run: as §1
# [18] = system: NCI-H2170
# How it was run: as §1
smiles,measurement,setting,value
CCN(CC)CCCCNc1ncc2cc(-c3cc(OC)cc(OC)c3)c(NC(=O)NC(C)(C)C)nc2n1 + NC(=O)Nc1cc(-c2cccc(F)c2)sc1C(=O)N[C@H]1CCCNC1 [AZD7762] (partner 0.2 µM),relative viability,[1]; first compound 0.01 µM,0.646
same,relative viability,[1]; first compound 0.03162 µM,0.637
same,relative viability,[1]; first compound 0.1 µM,0.626
same,relative viability,[1]; first compound 0.3162 µM,0.538
same,relative viability,[1]; first compound 1 µM,0.388
same,relative viability,[2]; first compound 0.01 µM,0.766
same,relative viability,[2]; first compound 0.1 µM,1.1
same,relative viability,[2]; first compound 0.3162 µM,0.795
same,relative viability,[2]; first compound 1 µM,0.825
same,relative viability,[3]; first compound 0.01 µM,0.245
same,relative viability,[3]; first compound 0.03162 µM,0.376
same,relative viability,[3]; first compound 0.1 µM,0.327
same,relative viability,[3]; first compound 0.3162 µM,0.277
same,relative viability,[3]; first compound 1 µM,0.241
same,relative viability,[4]; first compound 0.01 µM,0.471
same,relative viability,[4]; first compound 0.03162 µM,0.394
same,relative viability,[4]; first compound 0.1 µM,0.374
same,relative viability,[4]; first compound 0.3162 µM,0.276
same,relative viability,[4]; first compound 1 µM,0.197
same,relative viability,[5]; first compound 0.01 µM,0.817
same,relative viability,[5]; first compound 0.03162 µM,0.408
same,relative viability,[5]; first compound 0.1 µM,0.749
same,relative viability,[5]; first compound 0.3162 µM,0.673
same,relative viability,[5]; first compound 1 µM,0.586
same,relative viability,[6]; first compound 0.01 µM,0.772
same,relative viability,[6]; first compound 0.03162 µM,0.831
same,relative viability,[6]; first compound 0.1 µM,0.846
same,relative viability,[6]; first compound 0.3162 µM,0.781
same,relative viability,[6]; first compound 1 µM,0.88
same,relative viability,[7]; first compound 0.01 µM,0.896
same,relative viability,[7]; first compound 0.03162 µM,0.708
same,relative viability,[7]; first compound 0.1 µM,0.721
same,relative viability,[7]; first compound 0.3162 µM,0.97
same,relative viability,[7]; first compound 1 µM,0.869
same,relative viability,[8]; first compound 0.01 µM,0.766
same,relative viability,[8]; first compound 0.03162 µM,0.63
same,relative viability,[8]; first compound 0.1 µM,0.677
same,relative viability,[8]; first compound 0.3162 µM,0.791
same,relative viability,[8]; first compound 1 µM,0.667
same,relative viability,[9]; first compound 0.01 µM,1.07
same,relative viability,[9]; first compound 0.03162 µM,1.18
same,relative viability,[9]; first compound 0.1 µM,1.16
same,relative viability,[9]; first compound 0.3162 µM,0.946
same,relative viability,[9]; first compound 1 µM,0.956
same,relative viability,[10]; first compound 0.03162 µM,0.822
same,relative viability,[10]; first compound 0.1 µM,0.756
same,relative viability,[10]; first compound 0.3162 µM,1.03
same,relative viability,[10]; first compound 1 µM,0.639
same,relative viability,[11]; first compound 0.01 µM,1
same,relative viability,[11]; first compound 0.03162 µM,0.987
same,relative viability,[11]; first compound 0.1 µM,1.08
same,relative viability,[11]; first compound 0.3162 µM,0.971
same,relative viability,[11]; first compound 1 µM,1.06
same,relative viability,[12]; first compound 0.01 µM,0.474
same,relative viability,[12]; first compound 0.03162 µM,0.86
same,relative viability,[12]; first compound 0.1 µM,0.513
same,relative viability,[12]; first compound 0.3162 µM,0.505
same,relative viability,[12]; first compound 1 µM,0.494
same,relative viability,[13]; first compound 0.01 µM,0.343
same,relative viability,[13]; first compound 0.03162 µM,0.666
same,relative viability,[13]; first compound 0.1 µM,0.939
same,relative viability,[13]; first compound 0.3162 µM,0.684
same,relative viability,[13]; first compound 1 µM,0.431
same,relative viability,[14]; first compound 0.01 µM,0.722
same,relative viability,[14]; first compound 0.03162 µM,0.671
same,relative viability,[14]; first compound 0.1 µM,0.778
same,relative viability,[14]; first compound 0.3162 µM,0.549
same,relative viability,[14]; first compound 1 µM,0.421
same,relative viability,[15]; first compound 0.01 µM,1.11
same,relative viability,[15]; first compound 0.03162 µM,1
same,relative viability,[15]; first compound 0.1 µM,1.06
same,relative viability,[15]; first compound 0.3162 µM,0.979
same,relative viability,[15]; first compound 1 µM,0.801
same,relative viability,[16]; first compound 0.01 µM,0.578
same,relative viability,[16]; first compound 0.03162 µM,0.52
same,relative viability,[16]; first compound 0.1 µM,0.59
same,relative viability,[16]; first compound 0.3162 µM,0.728
same,relative viability,[16]; first compound 1 µM,0.559
same,relative viability,[17]; first compound 0.03162 µM,1.14
same,relative viability,[17]; first compound 0.1 µM,1.3
same,relative viability,[17]; first compound 0.3162 µM,1.16
same,relative viability,[17]; first compound 1 µM,1.07
same,relative viability,[18]; first compound 0.01 µM,0.865
same,relative viability,[18]; first compound 0.03162 µM,1.01
same,relative viability,[18]; first compound 0.1 µM,1
same,relative viability,[18]; first compound 0.3162 µM,0.953
same,relative viability,[18]; first compound 1 µM,0.869
